The test system of one test is Sprague-Dawley rats. Description: Assessment of wake promotion in Sprague-Dawley rats (EEG/EMG). To be noted: Rattus norvegicus, 3 mpk, male Sprague-Dawley rats, dosed at ZT5, 6-hour post-dose period, read-out: Mean cortical activation time (% vehicle treatment). The class given is in vivo. On the procedure: Wake promotion was assessed using electroencephalography (EEG) and electromyography (EMG) in adult male Sprague-Dawley rats (350-600 g). All rats (Charles River Laboratories, Raleigh, NC, USA) were intraperitoneally implanted with telemetry devices (F50-EEE, Data Sciences International Inc., M/N, USA) under isoflurane anesthesia. For EEG, stainless steel screws were implanted over frontal cortex and parietal cortex, and reference screws were placed over cerebellum. Additionally, an electrode was placed in neck muscle for EMG. Rats were given carprofen post-surgery and underwent a 7 to 10-day recovery period. Rats habituated to the experimental room for 7 days and were maintained on a 12-hour light-dark cycle.
EEG and EMG data were recorded using the DSI telemetry system and Ponemah software (Data Sciences International Inc., MN, USA). Sleep-wake stages were scored both manually and with Somnivore, a supervised machine learning software platform, in 10 second epocs. Records were visually inspected as needed post-processing.
All test compounds were dissolved in 5% DMSO and suspended in 95% saline with 0.5% methylcellulose and 0.5% tween. […] Unless otherwise indicated, all compounds were dosed orally. Recordings for each rat were initiated immediately after dosing and lasted for 6 hours post-dose.
Two key endpoints include wakefulness time and cortical activation time. Wakefulness time is derived from the sleep-wake stage analysis. Cortical activation time is based on the duration in which frontal gamma oscillatory activity (30-100 Hz), a key feature of wakefulness, was elevated relative to a pre-treatment baseline. Mean cortical activation time was computed relative to vehicle treatment for the 6-hour post-dose period.

Test [1] concerns the target T1, human orexin-2 receptor (OX2R) (Homo sapiens, UniProt O43614).
T1 construct: expressed in transfected cells
T1 sequence (O43614 1-444): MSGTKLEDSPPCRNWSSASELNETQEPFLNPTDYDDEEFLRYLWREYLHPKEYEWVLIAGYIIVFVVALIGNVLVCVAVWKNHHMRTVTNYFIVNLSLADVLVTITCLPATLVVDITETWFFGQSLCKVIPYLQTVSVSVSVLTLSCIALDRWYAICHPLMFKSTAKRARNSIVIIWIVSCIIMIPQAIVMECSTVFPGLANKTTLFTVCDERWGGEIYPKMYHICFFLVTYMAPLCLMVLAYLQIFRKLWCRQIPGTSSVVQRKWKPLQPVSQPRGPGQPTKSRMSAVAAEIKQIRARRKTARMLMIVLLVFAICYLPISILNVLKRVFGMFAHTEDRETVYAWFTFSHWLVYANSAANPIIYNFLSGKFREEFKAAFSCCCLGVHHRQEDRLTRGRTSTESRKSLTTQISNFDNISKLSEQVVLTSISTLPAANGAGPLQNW
Nature of the test: Human OX2R IP1 assay. It counts as cell-based. Conditions: T-Rex CHO cells stably overexpressing human OX2R, IP1 accumulation, 1 hr at 37 degrees C; mean EC50; ∧ = racemic mixture. The gist of the method:
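Doxycycline-induced T-Rex CHO cells stably expressing human OX2R treated with compound 1 hr at 37 °C in LiCl-containing buffer, pH 7.4. IP1 accumulation quantified by HTRF competitive immunoassay; EC50 reported as mean ± S.E.M.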

Each structure is given as a SMILES string. Like-named read-outs stand apart in the source and are kept apart here.

As to `CS(=O)(=O)N[C@@H]1CCCN2C(=O)COc3cccc(F)c3[C@H]3CC[C@H](CC3)OC[C@H]12` (racemic) [Compound 49], the response vs control in vivo at 3 mg/kg in the test on Sprague-Dawley rats (PO) was found to be 340%. The concentration for a half-maximal effect (EC50) (usually the concentration giving half of the maximal effect) in test [1] was less than 100 nM.
`COC(=O)N1CCC[C@H](NS(C)(=O)=O)[C@@H]1CO[C@H]1CC[C@@H](c2ccccc2)CC1` [methyl (2R,3S)-3-((methylsulfonyl)amino)-2-(((cis-4-phenylcyclohexyl)oxy)methyl)-piperidine-1-carboxylate, reference compound]: the response vs control in vivo at 3 mg/kg in the test on Sprague-Dawley rats (SC) is 119%. Further, in test [1], the EC50 is less than 100 nM.

The values are drawn from patent US12054495B2, “Substituted macrocyclic compounds and related methods of treatment” (Alkermes, Inc., priority 2019, dated 2024).
